“Also recorded” adds a separate entry of the source. Marks after values point to notes of the source that are not given here.

Experiment [1] deals with ET receptor. In words: Endothelin-1 (ET-1) challenge before and after Compound 1 in conscious pigs with heart failure. It counts as in vivo, pig. Here is the method:
Hemodynamic experiments were performed after 2 cycles of tachycardic pacing in the presence of myocardial ischemia injury, after the animal had achieved a stable state of heart failure. During the experiments, the pigs were conscious and quietly restrained in a sling. The test compound is dissolved in saturated NaHCO3 (10% by Vol) and 0.9% saline (90% by Vol) at a concentration of 2 mg/ml, was studied in four conscious pigs with heart failure. A dose of 0.5 mg/kg was injected intravenously over a period of 2 minutes, and hemodynamics were continuously recorded before and 90 minutes following injection of the test compound in all 4 pigs. In two of these pigs, recording continued until 3 hours following injection of the test compound. The vehicle was tested on separate days. The effects of 0.1 to 0.5 μg/kg cumulative bolus doses in 0.1 μg/kg steps of endothelin-1 (Peptide Institute, Inc., Osaka, Japan) were also examined on separate days before and 90 minutes after injection of the test compound in three pigs during development of heart failure to characterize the extent of endothelin block by the test compound. ET-1 was dissolved in 0.1 N NaHCO3 ([…]) and 0.9% saline (95% by Vol) at a concentration of 20 μg/ml.
Hemodynamic experiments were performed after 2 cycles of tachycardic pacing in the presence of myocardial ischemia injury, after the animal had achieved a stable state of heart failure. During the experiments, the pigs were conscious and quietly restrained in a sling. Compound 1, dissolved in saturated NaHCO3 (10% by Vol) and 0.9% saline (90% by Vol) at a concentration of 2 mg/ml, was studied in four conscious pigs with heart failure. A dose of 0.5 mg/kg was injected intravenously over a period of 2 minutes, and hemodynamics were continuously recorded before and 90 minutes following injection of Compound 1 in all 4 pigs. In two of these pigs, recording continued until 3 hour following injection of Compound 1. The vehicle was tested on separate days. The effects of 0.1 to 0.5 μg/kg cumulative bolus doses in 0.1 μg/kg steps of endothelin-1 (Peptide Institute, Inc., Osaka, Japan) were also examined on separate days before and 90 minutes after injection of Compound 1 in three pigs during development of heart failure to characterize the extent of ET block by Compound 1. ET-1was dissolved in 0.1 N NaHCO3 ([…]) and 0.9% saline (95% by Vol) at a concentration of 20 μg/ml. For comparative purpose, the effects of intravenous injection of Compound 2 (enalaprilat), at doses of 1 mg/kg and 4 mg/kg, were studied on different days in three of the pigs that were used to study […] and in one additional pig. Compound 2 was dissolved in 0.9% saline.

In experiment [2] the test system is conscious pigs with heart failure. In words: Hemodynamic study in conscious pigs with heart failure (serial myocardial infarctions plus intermittent tachycardic pacing). Particulars: for LV End-Diastolic Diameter, change from baseline / LV End-Systolic Diameter, change from baseline / LV Fractional Shortening, change from baseline / Vcf, change from baseline: n = 3; for Cardiac Index, change from baseline / Heart Rate, change from baseline / LV dP/dt, change from baseline / Left Atrial Pressure, change from baseline / Mean Arterial Pressure, change from baseline / Total Peripheral Resistance, change from baseline: n = 4. The experiment is classed as in vivo, pig. On the procedure:
Five farm pigs of either of sex and weighing 34.5±2.5 kg were sedated with ketamine hydrochloride (25 mg/kg, i.m.) and xylazine (6 mg/kg, i.m.). After tracheal intubation, general anesthesia was maintained with isoflurane (1.5-2.0 vol % in oxygen). Using sterile surgical technique, a left thoracotomy was performed at the fifth intercostal space. Catheters made of Tygon tubing (Norton Performance Plastics Co., Akron, Ohio) were implanted in the descending aorta, left and right atria for measurement of pressures. A solid-state miniature pressure gauge (Konigsberg Instruments Inc., Pasadena, Calif.) was implanted in the left ventricular (LV) chamber to obtain LV pressure and the rate of change of LV pressure (LV dP/dt). A flow probe (Transonic System Inc., Ithaca, N.Y.) was placed around the main pulmonary artery for measurement of blood flow. One pair of piezoelectric ultrasonic dimension crystals were implanted on opposing anterior and posterior endocardial regions of the LV to measure the short-axis internal diameter. Proper alignment of the endocardial crystals was achieved during surgical implantation by positioning the crystals so as to obtain a signal with the greatest amplitude and shortest transit time. A pacing lead (model 5069, Medtronic Inc., Minneapolis, Minn.) was attached to the right ventricular free wall, and stainless steel pacing leads were attached to the left atrial appendage. The left circumflex coronary artery was isolated and two hydraulic occluders, made of Tygon tubing, were implanted proximally and distally to the first obtuse marginal branch. The wires and catheters were externalized between the scapulae, the incision was closed in layers, and air was evacuated from the chest cavity.
Hemodynamic recordings were made using a data tape recorder (RD-130TE, TEAC, Montebello, Calif.) and a multiple-channel oscillograph (MT95K2, Astro-Med, West Warwick, R.I.). Aortic and left atrial pressures were measured using strain gauge manometers (Statham Instruments, Oxnard, Calif.), which were calibrated in vitro using a mercury manometer, connected to the fluid-filled catheters. The solid-state LV pressure gauge was cross-calibrated with aortic and left atrial pressure measurements. LV dP/dt was obtained by electronically differentiating the LV pressure signal. Blood flow was measured using a volume flow meter (T208, Transonic System Inc., Ithaca, N.Y.). Mean arterial pressure, left atrial pressures, and pulmonary blood flow (cardiac output) were measured using an amplifier filter. Stroke volume was calculated as the quotient of cardiac output and heart rate. Cardiac output was normalized by body weight to yield cardiac index. LV dimension was measured with an ultrasonic transit-time dimension gauge (Model 203, Triton Technology Inc., San Diego, Calif.). Total peripheral resistance was calculated as the quotient of mean arterial pressure and cardiac output. LV short-axis end-diastolic dimension (EDD) was measured at the beginning of the upstroke of the LV dP/dt signal. LV end-systolic dimension (ESD) was measured at the time of maximum negative dP/dt. The percent shortening of LV internal diameter was calculated as (EDD-ESD)/EDD*100. LV mean velocity of circumferential fiber shortening (Vcf) was calculated from the dimension measurements using the following formula:(EDD-ESD)/EDD/Ejection time (sec^−1). Ejection time was measured as the interval between maximum and minimum LV dP/dt. A cardiotachometer triggered by the LV pressure pulse provided instantaneous and continuous records of heart rate.
Experiments were initiated 10-14 days after surgery, when the pigs were fully recovered from surgery. During the post-operative period, the pigs were introduced to a sling for training. Heart failure was produced by progressive myocardial ischemia induced by two coronary artery occlusions followed by intermittent ventricular pacing.

[3] abbreviates: 0.5 mg/kg i.v., 60 minutes after administration.
Setting [4] is: Compound 1 0.5 mg/kg i.v., 15 min.
Setting [5] is: Compound 1 0.5 mg/kg i.v., 60 min.
Where [6] appears, read: ET-1 cumulative i.v. bolus 0.1 to 0.5 μg/kg, without Compound 1.

`CCCCc1ccc2c(n1)[C@@H](c1ccc(OC)cc1CC(C)C(=O)O)[C@H](C(=O)O)[C@H]2c1ccc2c(c1)OCO2` (relative stereo) [Compound 1, (+)-(5S*, 6R*, 7R*)-2-butyl-6-carboxy-7-[2-(2-carboxypropyl)-4-methoxyphenyl]-5-(3,4-methylenedioxyphenyl)cyclopenteno[1,2-b]pyridine]: the “hemodynamic responses to ET-1 after administration of the antagonist” value in experiment [1] (Compound 1 0.5 mg/kg i.v., ET-1 cumulative i.v. bolus, total dose 0.5 μg/kg) was “markedly attenuated”. Also, in experiment [2] (0.5 mg/kg i.v.), the “Vcf, increase” value was found to be 12±2%; the “effect on LV dP/dt (in words)” value was “not affected”; the “effect on LV end-diastolic diameter (in words)” value is “not affected”; the “effect on LV fraction shortening (in words)” value was “not affected”. Moreover, in experiment [2] (0.5 mg/kg i.v.), the “effect on LV systolic diameter (in words)” value is listed as “not affected”; the “effect on elevated vascular resistance of heart failure (in words)” value is recorded as “complete restoration of the elevated vascular resistance of heart failure back to pre-heart failure control values; also recorded: reduced the elevated vascular resistance”; the “effect on myocardial contractility (in words)” value is reported as “did not affect myocardial contractility”; the “heart rate, increase (in words)” value is “not statistically significant”. Also, the “left atrial pressure, decrease (in words)” value in experiment [2] (0.5 mg/kg i.v.) was “not statistically significant”. For the same compound, in experiment [2] (setting [3]), the “cardiac index, increase” value is on record as 17±4%; the “mean arterial pressure, decrease” value turned out to be 10±2%; the “total peripheral resistance, decrease” value is on record as 22±3%. Moreover, the “reduction in total peripheral resistance compared with Compound 2 (1 mg/kg or 4 mg/kg i.v.)” value in experiment [2] (Compound 1 0.5 mg/kg i.v.) was “greater than that induced by either dose of Compound 2”. In addition, in experiment [2] (setting [4]), the “LV End-Diastolic Diameter, change from baseline” value was “+0.1 ± 0.2 mm”; the “LV End-Systolic Diameter, change from baseline” value was −0.3 ± 0.3 mm; the “LV Fractional Shortening, change from baseline” value is listed as “+0.6 ± 0.2%”; the “Vcf, change from baseline” value is listed as 0.05 ± 0.01* sec^−1. In experiment [2] (setting [4]), the “Cardiac Index, change from baseline” value is “+14 ± 2 ml/min/kg”; the “Heart Rate, change from baseline” value is reported as “+5 ± 5 beat/min”; the “LV dP/dt, change from baseline” value is listed as “+25 ± 40 mmHg/sec”; the “Left Atrial Pressure, change from baseline” value is listed as −4 ± 2 mmHg. Further, in experiment [2] (setting [4]), the “Mean Arterial Pressure, change from baseline” value is −10 ± 1 mmHg and the “Total Peripheral Resistance, change from baseline” value is given as −0.25 ± 0.03 mmHg/ml/min/kg. Moreover, in experiment [2] (setting [5]), the “LV End-Diastolic Diameter, change from baseline” value is “+0.2 ± 0.3 mm”; the “LV End-Systolic Diameter, change from baseline” value is listed as −0.2 ± 0.3 mm; the “LV Fractional Shortening, change from baseline” value is listed as “+0.7 ± 0.2%”; the “Vcf, change from baseline” value is “+0.07 ± 0.02* sec^−1”. Moreover, in experiment [2] (setting [5]), the “Cardiac Index, change from baseline” value was “+13 ± 2 ml/min/kg”; the “Heart Rate, change from baseline” value is reported as “+7 ± 5 beat/min”; the “LV dP/dt, change from baseline” value worked out at 56 ± 65 mmHg/sec; the “Left Atrial Pressure, change from baseline” value is −2 ± 2 mmHg. In experiment [2] (setting [5]), the “Mean Arterial Pressure, change from baseline” value is on record as −8 ± 1 mmHg and the “Total Peripheral Resistance, change from baseline” value is reported as −0.24 ± 0.05 mmHg/ml/min/kg.
As to `C[C@H](N[C@@H](CCc1ccccc1)C(=O)O)C(=O)N1CCC[C@H]1C(=O)O` [Compound 2, enalaprilat, reference compound], the “effect on total peripheral resistance (in words)” value in experiment [2] (1 mg/kg or 4 mg/kg i.v., throughout 90-minute observation period, not dose-dependent) is reported as “significantly reduce the total peripheral resistance”.
As for `CC[C@H](C)[C@H](NC(=O)[C@H](CC(=O)O)NC(=O)[C@H](CC(C)C)NC(=O)[C@H](Cc1c[nH]cn1)NC(=O)[C@@H]1CSSC[C@H](N)C(=O)N[C@@H](CO)C(=O)N[C@H]2CSSC[C@H](NC(=O)[C@H](CCC(=O)O)NC(=O)[C@H](CCCCN)NC(=O)[C@H](CC(=O)O)NC(=O)[C@H](CCSC)NC(=O)[C@H](CC(C)C)NC(=O)[C@H](CO)NC(=O)[C@H](CO)NC2=O)C(=O)N[C@@H](C(C)C)C(=O)N[C@@H](Cc2ccc(O)cc2)C(=O)N[C@@H](Cc2ccccc2)C(=O)N1)C(=O)N[C@H](C(=O)N[C@@H](Cc1c[nH]c2ccccc12)C(=O)O)[C@@H](C)CC` [ET-1, endothelin-1], in experiment [1] (setting [6]), the “effect of ET-1 on heart rate” value was “decreased, but not dose-dependently”; the “effect of ET-1 on mean arterial pressure” value was “significant dose-dependent increases”; the “effect of ET-1 on mean left atrial pressure” value is “significant dose-dependent increases”; the “effect of ET-1 on total peripheral resistance” value is on record as “significant dose-dependent increases”.

For the origin of these results see patent publication US6380195B1, “Method of treating heart failure with endothelin antagonists” (Banyu Pharmaceutical Co., Ltd., priority 1996, dated 2002).
